Results: article PMC11410943 (Nature Communications, 2024)
Converted amounts (≈) assume the structure as drawn. Where two headings read alike, the source gives them in different places.

Key:
[1] = target: hERG K+ channel (Homo sapiens, UniProt Q12809); test: hERG automated patch-clamp; type: cell-based
[2] = test system: Escherichia coli; test: MIC
[3] = test system: Pseudomonas aeruginosa; test: MIC
[4] = test system: Klebsiella pneumoniae; test: MIC
[5] = test system: Acinetobacter baumannii; test: MIC; conditions: IHMA/CARB-X MDR clinical isolates 2019, N=298
[6] = test system: Enterobacter cloacae; test: MIC; conditions: IHMA/CARB-X MDR clinical isolates 2019, N=152
[7] = test system: Citrobacter spp.; test: MIC
[8] = test system: Proteus spp.; test: MIC
[9] = test system: Morganella morganii; test: MIC; conditions: IHMA/CARB-X MDR clinical isolates 2019, N=42
[10] = test system: Serratia marcescens; test: MIC; conditions: IHMA/CARB-X MDR clinical isolates 2019, N=45
[11] = test system: Stenotrophomonas maltophilia; test: MIC; conditions: IHMA/CARB-X MDR clinical isolates 2019, N=150
[12] = IHMA/CARB-X MDR clinical isolates 2019, N=300
[13] = IHMA/CARB-X MDR clinical isolates 2019, N=151
[14] = IHMA/CARB-X MDR clinical isolates 2019, N=152

Sequence of hERG K+ channel (Q12809 whole entry): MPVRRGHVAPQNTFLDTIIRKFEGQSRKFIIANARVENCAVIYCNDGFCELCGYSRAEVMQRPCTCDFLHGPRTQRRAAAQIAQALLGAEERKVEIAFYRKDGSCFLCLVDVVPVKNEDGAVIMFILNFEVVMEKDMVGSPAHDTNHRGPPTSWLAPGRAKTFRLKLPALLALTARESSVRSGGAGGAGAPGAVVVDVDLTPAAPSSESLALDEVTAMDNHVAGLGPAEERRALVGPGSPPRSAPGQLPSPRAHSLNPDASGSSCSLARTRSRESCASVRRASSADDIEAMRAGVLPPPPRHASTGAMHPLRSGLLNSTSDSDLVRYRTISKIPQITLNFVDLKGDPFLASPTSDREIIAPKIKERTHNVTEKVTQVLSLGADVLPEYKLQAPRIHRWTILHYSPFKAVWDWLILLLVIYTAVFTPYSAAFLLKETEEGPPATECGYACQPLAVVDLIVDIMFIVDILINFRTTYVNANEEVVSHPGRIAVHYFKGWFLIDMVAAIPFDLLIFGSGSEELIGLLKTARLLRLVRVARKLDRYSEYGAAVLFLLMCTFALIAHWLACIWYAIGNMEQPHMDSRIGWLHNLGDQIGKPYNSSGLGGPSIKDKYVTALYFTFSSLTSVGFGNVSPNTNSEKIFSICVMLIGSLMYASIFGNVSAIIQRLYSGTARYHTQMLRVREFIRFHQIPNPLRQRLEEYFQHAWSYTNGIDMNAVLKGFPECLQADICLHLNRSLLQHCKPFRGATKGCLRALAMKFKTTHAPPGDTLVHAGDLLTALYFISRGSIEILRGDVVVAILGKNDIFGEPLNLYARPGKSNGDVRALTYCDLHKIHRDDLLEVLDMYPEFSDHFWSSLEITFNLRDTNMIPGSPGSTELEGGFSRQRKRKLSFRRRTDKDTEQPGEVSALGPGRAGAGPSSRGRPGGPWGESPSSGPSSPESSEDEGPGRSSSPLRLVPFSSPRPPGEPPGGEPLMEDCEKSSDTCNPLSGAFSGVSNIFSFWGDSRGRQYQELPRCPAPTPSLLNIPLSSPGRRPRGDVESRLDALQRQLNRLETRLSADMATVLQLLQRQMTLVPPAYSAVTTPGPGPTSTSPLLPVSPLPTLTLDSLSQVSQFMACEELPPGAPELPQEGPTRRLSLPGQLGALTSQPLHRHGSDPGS

Compound | IC50 [1] | MIC90 ([2]; Escherichia coli) | MIC90 ([3]; Pseudomonas aeruginosa) | MIC90 ([4]; Klebsiella pneumoniae) | MIC90 ([5]; Acinetobacter baumannii) | MIC90 ([6]; Enterobacter cloacae) | MIC90 ([7]; Citrobacter) | MIC90 [8] | MIC90 ([9]; Morganella morganii) | MIC90 [2, 12] | MIC90 [3, 12] | MIC90 [4, 12] | MIC90 [6] | MIC90 [7, 13] | MIC90 [8, 14] | MIC90 [10] | MIC90 [9] | MIC90 [5] | MIC90 [11]
Cn1c(=O)ccc2ccc(F)c(CCNC[C@@H]3CN(c4cnc5c(n4)NC(=O)CO5)C(=O)O3)c21 [Compound 8, 6-[(5 R)−5-[[[2-(7-Fluoro-1,2-dihydro-1-methyl-2-oxo-8-quinolinyl)ethyl]amino]methyl]−2-oxo-3-oxazolidinyl]−2H-pyrazino[2,3-b]−1,4-oxazin-3(4H)-one] | 60 µM | – | – | – | – | – | – | – | – | – | – | – | – | – | – | – | – | – | –
C[C@H]1c2cccc(O)c2C(=O)C2=C(O)[C@]3(O)C(=O)C(C(N)=O)=C(O)[C@@H](N(C)C)[C@@H]3[C@@H](O)[C@@H]21 [Doxycycline] | – | 32 µg/mL (≈ 72 µM) | 32 µg/mL (≈ 72 µM) | 32 µg/mL (≈ 72 µM) | 64 µg/mL (≈ 144 µM) | 16 µg/mL (≈ 36 µM) | 16 µg/mL (≈ 36 µM) | > 32 µg/mL | 64 µg/mL (≈ 144 µM) | – | – | – | – | – | – | – | – | – | –
CN(C)[C@@H]1C(O)=C(C(N)=O)C(=O)[C@@]2(O)C(O)=C3C(=O)c4c(O)c(NC(=O)CN5CCCC5)cc(F)c4C[C@H]3C[C@@H]12 [Eravacycline] | – | 0.25 µg/mL (≈ 0.448 µM) | – | 1 µg/mL (≈ 1.79 µM) | – | – | 0.5 µg/mL (≈ 0.895 µM) | 2 µg/mL (≈ 3.58 µM) | 1 µg/mL (≈ 1.79 µM) | – | – | – | – | – | – | – | – | – | –
CNC(C)C1CCC(N)C(OC2C(N)CC(N)C(OC3OCC(C)(O)C(NC)C3O)C2O)O1 (centres unmarked) [Gentamicin] | – | > 32 µg/mL | > 32 µg/mL | > 32 µg/mL | > 32 µg/mL | 1 µg/mL (≈ 2.09 µM) | 8 µg/mL (≈ 16.8 µM) | 16 µg/mL (≈ 33.5 µM) | 64 µg/mL (≈ 134 µM) | – | – | – | – | – | – | – | – | – | –
C[C@H]1COc2c(N3CCN(C)CC3)c(F)cc3c(=O)c(C(=O)O)cn1c23 [Levofloxacin] | – | 16 µg/mL (≈ 44.3 µM) | 32 µg/mL (≈ 88.6 µM) | > 32 µg/mL | > 32 µg/mL | 64 µg/mL (≈ 177 µM) | 2 µg/mL (≈ 5.53 µM) | 8 µg/mL (≈ 22.1 µM) | 16 µg/mL (≈ 44.3 µM) | – | – | – | – | – | – | – | – | – | –
C[C@@H](O)[C@H]1C(=O)N2C(C(=O)O)=C(S[C@@H]3CN[C@H](C(=O)N(C)C)C3)[C@H](C)[C@H]12 [Meropenem] | – | ≤ 0.06 µg/mL | 32 µg/mL (≈ 83.4 µM) | 32 µg/mL (≈ 83.4 µM) | > 64 µg/mL | 8 µg/mL (≈ 20.9 µM) | ≤ 0.06 µg/mL | 0.125 µg/mL (≈ 0.326 µM) | 0.125 µg/mL (≈ 0.326 µM) | – | – | – | – | – | – | – | – | – | –
CN[C@@H]1[C@@H](O)[C@@H](O[C@@H]2[C@@H](O)[C@H](O[C@H]3OC(CNCCO)=CC[C@H]3N)[C@@H](N)C[C@H]2NC(=O)[C@@H](O)CCN)OC[C@]1(C)O [Plazomicin] | – | 1 µg/mL (≈ 1.69 µM) | – | 0.5 µg/mL (≈ 0.844 µM) | – | 0.5 µg/mL (≈ 0.844 µM) | 0.5 µg/mL (≈ 0.844 µM) | 4 µg/mL (≈ 6.75 µM) | 8 µg/mL (≈ 13.5 µM) | – | – | – | – | – | – | – | – | – | –
NC[C@H]1O[C@H](O[C@H]2[C@H](O)[C@@H](O[C@H]3O[C@H](CO)[C@@H](O)[C@H](N)[C@H]3O)[C@H](N)C[C@@H]2N)[C@H](N)C[C@@H]1O [Tobramycin] | – | 16 µg/mL (≈ 34.2 µM) | > 32 µg/mL | > 32 µg/mL | > 32 µg/mL | 32 µg/mL (≈ 68.4 µM) | 8 µg/mL (≈ 17.1 µM) | 8 µg/mL (≈ 17.1 µM) | 16 µg/mL (≈ 34.2 µM) | – | – | – | – | – | – | – | – | – | –
Aztreonam/Avibactam | – | – | – | – | – | – | – | – | – | 0.125 µg/mL | > 16 µg/mL | 0.25 µg/mL | 0.5 µg/mL | 0.25 µg/mL | ≤ 0.016 µg/mL | 0.25 µg/mL | 0.06 µg/mL | – | –
Ceftazidime-Avibactam | – | – | – | – | – | – | – | – | – | 0.25 µg/mL | > 16 µg/mL | 1 µg/mL | 2 µg/mL | 0.5 µg/mL | 0.06 µg/mL | 1 µg/mL | 0.125 µg/mL | – | –
Colistin | – | – | – | – | – | – | – | – | – | 0.25 µg/mL | 1 µg/mL | 0.5 µg/mL | 2 µg/mL | 0.5 µg/mL | > 32 µg/mL | > 32 µg/mL | 64 µg/mL | 0.5 µg/mL | > 32 µg/mL
Meropenem-vaborbactam | – | – | – | – | – | – | – | – | – | ≤ 0.03 µg/mL | 32 µg/mL | 16 µg/mL | 0.25 µg/mL | ≤ 0.03 µg/mL | 0.125 µg/mL | 0.125 µg/mL | 0.06 µg/mL | > 32 µg/mL | > 32 µg/mL
Piperacillin/Tazobactam | – | – | – | – | – | – | – | – | – | – | 128 µg/mL | – | 0.06 µg/mL | – | – | – | – | > 128 µg/mL | > 128 µg/mL
